{"source": "patent US20240165186A1", "about": "“Synergistically Formulated Compound for Mitochondria Supplementation and Enhancement” (priority 2022, published 2024)", "origin": "cited, not measured here", "settings": "relative to vitamin C; no test described", "data": [{"smiles": "O=C(O)c1cc(C(=O)O)c2c(n1)C(=O)C(=O)c1cc(C(=O)O)[nH]c1-2", "note": "[PQQ, Pyrroloquinoline Quinone]", "values": [{"measurement": "times more effective than vitamin C as an antioxidant", "value": "≤ 1000", "unit": "times"}]}]}
